Assay [1] addresses Envelope glycoprotein gp160 (Human immunodeficiency virus 1) (UniProt Q6QLK5). The assay is described as follows: Binding affinity to HIV1 GP41 using GP41 NHR derived N36 peptide at 500 uM incubated for 30 mins by size exclusion HPLC analysis.
For assay [2] the target is unchanged. Briefly: Synergistic inhibition of HIV1 gp41-induced cell-cell fusion between viral envelope expressing human HL2/3 cells to CD4/CCR5 receptor expressing TZM-bl cells assessed as combination index at 2:1 compound to HP23 ratio incubated for 6 hrs by luciferase reporter gene assay. Background: Reporter assays use an easily measured gene product as a stand-in for the process of interest.

Assay [3] has as its system Human immunodeficiency virus 1. Briefly: Antiviral activity against X4 tropic HIV-1 subtype-B 3B infected in human MT2 cells or CEMx174 5.25 M7 cells assessed as reduction in p24 Gag protein production at 24:1 compound to HP23 ratio measured at 4 days post-infection by ELISA. In kind it is functional, cell-based, HIV-1 group M. Conditions: Human immunodeficiency virus 1, 3B, 96 h. For orientation: An ELISA detects its analyte on a solid surface through an enzyme-linked reagent.

Assay [4] has as its system Human immunodeficiency virus 1. Briefly: Ratio of EC50 for antiviral activity against X4 tropic HIV-1 subtype-B 3B infected in human MT2 cells or CEMx174 5.25 M7 cells in absence of HP23 to EC50 for antiviral activity against X4 tropic HIV-1 subtype-B 3B infected in human MT2 cells or CEMx174 5.25 M7 cells at 12:1 compound to HP23 ratio. It counts as functional, HIV-1 group M.

Assay [5] relates to Human immunodeficiency virus 1. Briefly: Synergistic antiviral activity against R5 tropic HIV-1 subtype-B Bal infected in human MT2 cells or CEMx174 5.25 M7 cells assessed as reduction in p24 Gag protein production by measuring combination index at 3:1 ratio of hCS6ERE to compound measured at 4 days post-infection by ELISA. It counts as functional, HIV-1 group M.
Assay [6] relates to Human immunodeficiency virus 1. Briefly: Antiviral activity against HIV1 NL4-3 infected in human MT2 cells or CEMx174 5.25 M7 cells assessed as reduction in p24 Gag protein production at 5:1 compound to HP23 ratio measured at 4 days post-infection by ELISA. In kind it is functional, organism-based. Conditions: Human immunodeficiency virus 1, NL4-3, 96 h.
Assay [7] has as its system Human immunodeficiency virus 1. Briefly: Ratio of EC50 for antiviral activity against T20 resistant HIV1 NL4-3 harboring with V38E/N42S mutant infected in human MT2 cells or CEMx174 5.25 M7 cells in absence of HP23 to EC50 for antiviral activity against T20 resistant HIV1 NL4-3 harboring with V38E/N42S mutant infected in human MT2 cells or CEMx174 5.25 M7 cells at 14000:1 compound to HP23 ratio. In kind it is functional.

For assay [8], the system named is Human immunodeficiency virus 1. The assay is described as follows: Antiviral activity against T20 resistant HIV1 NL4-3 harboring with V38E/N42T mutant infected in human MT2 cells or CEMx174 5.25 M7 cells assessed as reduction in p24 Gag protein production at 600:1 compound to HP23 ratio measured at 4 days post-infection by ELISA. It counts as functional, organism-based.

Assay [9] has as its system Human immunodeficiency virus 1. Briefly: Ratio of EC50 for antiviral activity against T20 resistant HIV1 NL4-3 harboring with V38E/N42T mutant infected in human MT2 cells or CEMx174 5.25 M7 cells in absence of HP23 to EC50 for Antiviral activity against T20 resistant HIV1 NL4-3 harboring with V38E/N42T mutant infected in human MT2 cells or CEMx174 5.25 M7 cells at 150:1 compound to HP23 ratio. In kind it is functional.

Assay [10] relates to Human immunodeficiency virus 1. Briefly: Antiviral activity against T2635 resistant HIV1 LAI harboring Q66R mutant infected in human MT2 cells or CEMx174 5.25 M7 cells assessed as reduction in p24 Gag protein production at 12.5:1 ratio of compound to HP23 measured at 4 days post infection by ELISA. It counts as functional, organism-based, M:B_Lai.
The subject of assay [11] is Human immunodeficiency virus 1. The assay is described as follows: Antiviral activity against T2635 resistant HIV1 LAI harboring Q66R mutant infected in human MT2 cells or CEMx174 5.25 M7 cells assessed as reduction in p24 Gag protein production at 50:1 ratio of compound to HP23 measured at 4 days post infection by ELISA. In kind it is functional, organism-based, M:B_Lai.

Assay [12] concerns Human immunodeficiency virus 1. Briefly: Ratio of EC50 for antiviral activity against T2635 resistant HIV1 LAI harboring Q66R mutant infected in human MT2 cells or CEMx174 5.25 M7 cells in absence of HP23 to antiviral activity against T2635 resistant HIV1 LAI harboring Q66R mutant infected in human MT2 cells or CEMx174 5.25 M7 cells at 50:1 ratio of compound to HP23. It counts as functional, M:B_Lai.

For assay [13], the target named is Envelope glycoprotein gp160 (Human immunodeficiency virus 1) (UniProt Q6QLK5). Briefly: Ratio of EC50 for inhibition of HIV1 gp41-induced cell-cell fusion between viral envelope expressing human HL2/3 cells to CD4/CCR5 receptor expressing TZM-bl cells in absence of HP23 to EC50 for inhibition of HIV1 gp41-induced cell-cell fusion between viral envelope expressing human HL2/3 cells to CD4/CCR5 receptor expressing TZM-bl cells at 2:1 ratio of hCS6ERE to compound.
Envelope glycoprotein gp160 (Human immunodeficiency virus 1), sequence (Q6QLK5 1-814): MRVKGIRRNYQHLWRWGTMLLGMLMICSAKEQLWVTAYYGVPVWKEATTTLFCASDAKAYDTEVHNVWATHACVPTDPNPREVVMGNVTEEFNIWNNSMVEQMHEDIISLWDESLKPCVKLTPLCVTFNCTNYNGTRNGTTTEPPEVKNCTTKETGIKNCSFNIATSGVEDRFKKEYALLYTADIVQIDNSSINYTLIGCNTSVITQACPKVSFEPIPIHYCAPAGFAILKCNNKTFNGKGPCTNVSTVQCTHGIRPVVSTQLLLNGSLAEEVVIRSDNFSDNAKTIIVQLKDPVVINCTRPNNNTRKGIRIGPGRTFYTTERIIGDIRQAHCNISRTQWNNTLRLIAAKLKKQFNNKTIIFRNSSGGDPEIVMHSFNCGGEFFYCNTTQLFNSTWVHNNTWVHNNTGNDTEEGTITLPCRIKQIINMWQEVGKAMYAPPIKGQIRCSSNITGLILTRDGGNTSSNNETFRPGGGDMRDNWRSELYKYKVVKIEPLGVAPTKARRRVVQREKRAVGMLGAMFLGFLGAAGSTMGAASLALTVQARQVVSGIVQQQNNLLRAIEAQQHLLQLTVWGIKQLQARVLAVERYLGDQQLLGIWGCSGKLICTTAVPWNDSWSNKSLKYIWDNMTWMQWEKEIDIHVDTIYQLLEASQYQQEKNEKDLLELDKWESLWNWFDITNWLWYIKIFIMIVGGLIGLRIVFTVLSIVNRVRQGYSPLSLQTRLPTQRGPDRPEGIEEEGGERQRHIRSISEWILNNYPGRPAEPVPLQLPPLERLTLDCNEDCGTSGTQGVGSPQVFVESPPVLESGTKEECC

The test system of assay [14] is Human immunodeficiency virus 1. Briefly: Ratio of EC50 for antiviral activity against R5 tropic HIV-1 subtype-B Bal infected in human MT2 cells or CEMx174 5.25 M7 cells in absence of hCS6ERE to EC50 for antiviral activity against R5 tropic HIV-1 subtype-B Bal infected in human MT2 cells or CEMx174 5.25 M7 cells at 6:1 ratio of hCS6ERE to compound. In kind it is functional, HIV-1 group M.

Assay [15] relates to Human immunodeficiency virus 1. The assay is described as follows: Ratio of EC50 for antiviral activity against R5 tropic HIV-1 subtype-B Bal infected in human MT2 cells or CEMx174 5.25 M7 cells in absence of hCS6ERE to EC50 for antiviral activity against R5 tropic HIV-1 subtype-B Bal infected in human MT2 cells or CEMx174 5.25 M7 cells at 24:1 ratio of hCS6ERE to compound. It counts as functional, HIV-1 group M.

The test system of assay [16] is Human immunodeficiency virus 1. Briefly: Ratio of EC50 for antiviral activity against HIV1 NL4-3 infected in human MT2 cells or CEMx174 5.25 M7 cells in absence of hCS6ERE to EC50 for antiviral activity against HIV1 NL4-3 infected in human MT2 cells or CEMx174 5.25 M7 cells at 5:1 hCS6ERE to compound ratio. In kind it is functional.
The test system of assay [17] is Human immunodeficiency virus 1. Briefly: Ratio of EC50 for antiviral activity against T20 resistant HIV1 NL4-3 harboring with V38E/N42S mutant infected in human MT2 cells or CEMx174 5.25 M7 cells in absence of hCS6ERE to EC50 for antiviral activity against T20 resistant HIV1 NL4-3 harboring with V38E/N42S mutant infected in human MT2 cells or CEMx174 5.25 M7 cells at 14000:1 hCS6ERE to compound ratio. In kind it is functional.

Assay [18] deals with Human immunodeficiency virus 1. The assay is described as follows: Antiviral activity against T20 resistant HIV1 NL4-3 harboring with V38E/N42T mutant infected in human MT2 cells or CEMx174 5.25 M7 cells assessed as reduction in p24 Gag protein production at 600:1 hCS6ERE to compound ratio measured at 4 days post-infection by ELISA. It counts as functional, organism-based.

Assay [19] deals with Human immunodeficiency virus 1. Briefly: Ratio of EC50 for antiviral activity against T2635 resistant HIV1 LAI harboring Q66R mutant infected in human MT2 cells or CEMx174 5.25 M7 cells in absence of hCS6ERE to antiviral activity against T2635 resistant HIV1 LAI harboring Q66R mutant infected in human MT2 cells or CEMx174 5.25 M7 cells at 50:1 ratio of hCS6ERE to compound. In kind it is functional, M:B_Lai.

The source made the active and inactive calls. The calls are words filed in the database; no cut-off is given here. Starred links: 1 amine or outer side, 2 acyl side, 3 side chain; linkers in the order of their positions; H or OH if unused. Positions of bridges follow the written chain, without caps; N, C: chain ends. Non-standard residues stand in square brackets, D forms with d. Residues, ends and D or L forms follow the SMILES beside them. ξ: configuration not given here. mXylylene = c1cc(C[*:1])cc(C[*:2])c1; ξhCys = NC(CCS)C(=O)O

With `CC[C@H](C)[C@H](NC(C)=O)C(=O)N[C@@H](CCC(=O)O)C(=O)N[C@@H](CCC(=O)O)C(=O)N[C@@H](CC(C)C)C(=O)N[C@H](C(=O)NC1CCSCc2cccc(c2)CSCCC(C(=O)N[C@@H](CCC(N)=O)C(=O)N[C@@H](CCC(N)=O)C(=O)N[C@@H](CCCNC(=N)N)C(=O)N[C@@H](CCCCN)C(=O)N[C@@H](CC(N)=O)C(=O)N[C@@H](CCC(=O)O)C(=O)N[C@@H](CCC(=O)O)C(=O)N[C@@H](C)C(=O)N[C@@H](CC(C)C)C(=O)N[C@@H](CCCNC(=N)N)C(=O)N[C@@H](CCC(=O)O)C(=O)N[C@@H](CC(C)C)C(N)=O)NC(=O)[C@H](CCC(N)=O)NC(=O)[C@H](C)NC(=O)[C@H](C)NC1=O)[C@@H](C)CC` (some centres undefined) (Ac-IEELI[ξhCys]AAQ[ξhCys]QQRKNEEALREL-NH2; linker 6-10 via mXylylene), in assay [1], the result was Active. The CI in assay [2] and in [5] was 0.8 each time. The EC50 came to 17.3 nM in [3]; 4.4 nM in assay [6]; 468 nM in assay [8]; 22.9 nM in [10]; 26.3 nM in assay [11]. Also, the “Ratio EC50” value in assay [4] is 2.4; in [7], 2.2; in assay [9], 3.1; in assay [12], 3.3.
As for H-EMTWEEWEKKIEEYTKKIEEILK-OH, the Ratio EC50 in [13] turned out to be 2; in [14] it was 1.9; in [15] it was 5.2; in assay [16], 3.8; in assay [17], 7; in assay [19] it was 9.6. The EC50 in assay [18] amounted to 0.8 nM.

A word on the EC50: it is the concentration that produces a half-maximal response.
